Assay [1] concerns vector-expressing myeloid progenitor cells. The note with it: mice, human DHFR variant (Zhao et al. 1994); cited from earlier work.
For assay [2], the system named is human myeloid progenitor cells. The note with it: in vitro, MTX-containing cultures, human DHFR variant (Flasshove et al. 1995); cited from earlier work.
Assay [3] has as its system murine myeloid progenitors. The assay can be described thus: Defined in vitro liquid culture of unseparated murine bone marrow, myeloid progenitor assay after four days. The class given is cell-based, mice. The note with it: TMTX 150 nM; for sensitization of progenitor cells to TMTX: TTI at 1.0 μM or 0.1 μM, 0.1 μM or 1 μM thymidine. The procedure: FIGS. 1a & 1b a show TTIs effectively block nucleoside salvage and potentiate TMTX toxicity at physiological concentrations of thyrnidine. Unseparated bone marrow from normal C57B1/6 or WBBF1+/+ mice were cultured in DMEM plus dialyzed FBS with or without 150 nM TMTX, […] hypoxanthine and 0.1, 1.0 or 10 μM thymidine. In addition, either A) NBMPR or B) draflazine at 0.1 or 1.0 μM were added to the indicated suspension cultures. Progenitors were assayed by a semisolid methylcellulose-based myeloid progenitor assay after four days of suspension culture.
We developed a defined in vitro liquid culture system to determine the mechanism by which murine myeloid progenitors escape killing with TMTX. This system involves the culture of unseparated murine bone marrow in medium supplemented with optimal concentrations of hematopoietic growth factors (IL-3 at 20 ng/ml, human IL-6 at 50 ng/ml, rat SCF at 50 ng/ml), and either undialyzed fetal bovine serum (FBS) or dialyzed FBS at 15% v/v final concentration, that has been depleted of detectable thymidine and hypoxanthine. The progenitor content is determined four days after culture initiation.
The number of progenitors in cultures without TMTX were similar using either dialyzed or undialyzed serum. However, TMTX addition (150 nM) allowed survival of at least 50% of the myeloid progenitors in cultures containing undialyzed serum compared to 5% progenitor survival in cultures containing dialyzed serum.
Thymidine transport inhibitors (TTI) were added to our defined liquid culture system. […] However, supraphysiological thymidine levels (10 μM) were able to overcome the TTI-specific blockage of thymidine import, restoring full progenitor survival.

Assay [4] has as its system human CD34 immunoselected progenitors. Briefly: Human CD34-enriched peripheral blood progenitors in defined liquid culture. Type of assay: cell-based. The following applies: 1.0 μM draflazine, 150 nM trimetrexate, 100 μM hypoxanthine, thymidine 0 to 1.0 micromolar, dialyzed serum. On the procedure:
CD34-enriched, mobilized peripheral blood progenitors were assayed in the defined suspension culture system, as described for murine cells in the legend to FIG. 1. Two separate human samples were examined, and progenitor survival is represented relative to progenitors cultured without TMTX.
We examined the ability of draflazine to potentiate TMTX toxicity of human CD34 immunoselected progenitors in our defined liquid culture system comprising 15% dialyzed fetal calf serum, 20 ng/ml human IL-3, 50 ng/ml human IL-6, and 50 ng/ml human SCF in the presence-or absence of 1.0 μM draflazine, 100 μM hypoxanthine, 150 nM trimetrexate, and varying concentrations of thymidine ranging from 0 to 1.0 micromolar. […] CD34 selection was done using a Ceprate cell column (CellPro) according to the manufacturers instructions.

The subject of assay [5] is murine myeloid progenitors. The assay can be described thus: In vivo treatment of normal mice; bone marrow cellularity and myeloid progenitor content per femur. The note with it: for marrow cellularity / number of myeloid progenitors in the marrow: ip five consecutive days, 24 hrs after last treatment, TMTX 130 mg/kg, NBMPR-P 20 mg/kg, draflazine 20 mg/kg, alone or combined; for number of myeloid progenitors in the marrow: relative to untreated control mice. The procedure:
FIGS. 3a & 3b show thymidine transport inhibitors sensitize murine progenitors to TMTX in vivo Normal C57B1/6, WBBF1+/+ or B6.C-H1^6/By (HW80) mice were administered TMTX (130 mg/kg), NBMPR-P (20 mg/kg) or draflazine (20 mg/kg) alone, or the combination of TMTX+NBMPR-P or TMTX+draflazine ip for five consecutive days. 24 hrs following the last treatment, mice were sacrificed and bone marrow cellularity and myeloid progenitor content per femur were analyzed relative to untreated mice.
To determine if the antifolate trimetrexate (TMTX), could be used to inhibit hematopoietic progenitor cells which had not been genetically modified to contain and express a mutant dihydrofolate reductase, we treated mice with high doses of TMTX and measured the myeloid progenitor and stem cell content in the bone marrow. Mice were intraperitoneally administered 100 or 130 mg/kg TMTX for five consecutive days. Bone marrow cellularity and progenitor content was examined relative to untreated mice 24 hrs after the final treatment. […] Thus, although differentiated murine hematopoietic cells are highly sensitive to TMTX in vivo, immature myeloid progenitors resist it's cytotoxic effects.
In order to determine whether the combination of TMTX and TTIs will kill murine myeloid progenitors in vivo, normal mice were intraperitoneally administered TMTX (130 mg/kg) together with either NBMPR-5′ monophosphate (NBMPR-P) (20 mg/kg) or draflazine (20 mg/kg) for five consecutive days. […] The myeloid progenitor content in the marrow was also measured following these various treatments. […] Thus, while TMTX alone is insufficient for the killing of myeloid progenitors in vivo, either draflazine or NBMPR-P can be used to sensitize progenitors to TMTX thereby allowing elimination of unmodified cells in vivo.

For another assay, the system named is hematopoietic stem cells. The assay can be described thus: Stem cell kill: marrow of treated C57B1/6J donors transplanted into W/Wv mice, hemoglobin electrophoresis. The class given is in vivo. The following applies: donors given five daily doses of TMTX at 100 mg/kg/day. The procedure: C57B1/6 donor mice were administered either 100 mg/kg TMTX, 100 mg/kg TMTX+20 mg/kg NBMPR-P, or 130 mg/kg TMTX+20 mg/kg NBMPR-P ip for five consecutive days. 24 hrs following the last treatment, bone marrow was harvested and transplanted into genetically anemic W/W^V mice. The hemoglobin phenotype of transplanted mnice was determined after 8 weeks.
The above experiments indicate that the combination of an antifolate (TMTX) and TTIs effectively eliminates unmodified myeloid progenitors. Although selection at the progenitor level should be useful in a number of circumstances, selection at the level of repopulating stem cells should give the most durable and stable selection of vectormodified cells. To test if the combination of TMTX and NBMPR-P could be used to kill unmodified stem cells, C57B1/6J mice were treated with various drug combinations (intraperitoneal injections at the following doses: trimetrexate at 130 mg/kg, NBMPR-P at 20 mg/kg, and draflazine at 20 mg/kg) and then used as donors for bone marrow transplantation. Stem cell viability was measured by hemoglobin electrophoresis patterns in W/Wv mice used as transplant recipients. […]
Repopulation can be monitored by hemoglobin electrophoresis, which can distinguish the pattern obtained from C57B1/6J erthryocytes versus the W/Wv background.

In assay [6] the test system is human myeloid progenitor cells. Briefly: L22Y-DHFR or neo transduced human peripheral blood progenitors plated in semisolid media with TMTX. The class given is cell-based. The following applies: mobilized human peripheral blood progenitors, L22Y-DHFR versus neo transduced, TMTX 0 to 500 ng/ml in semisolid media.
Experimental: Peripheral blood cells collected following chemotherapy and growth factor mobilization were prestimulated for 48 hrs with IL-3, IL-6 and SCF, followed by coculture on irradiated amphotropic retroviral producers (L22Y-DHFR or neo) for an additional 48 hrs. Nonadherent hematopoietic cells were then assayed for drug resistant progenitors by addition of increasing concentrations of TMTX to the semisolid methylcellulose cultures.
Human progenitor cells were transduced as follows. Mononuclear cells were isolated by passing peripheral blood cells over a Ficoll gradient. These cells were cultured at 5×10^5 cells/ml in the presence of human IL-3 at 20 ng/ml, human IL-6 at 50 ng/ml, and human SCF at 50 ng/ml and 15% v/v fetal calf serum. After 48 hours, these cells were placed on plates containing an irradiated confluent layer of fibroblasts that were producing the amphotropic L22Y vector. The cytokine concentrations during this coculture period were identical to that used during the previous prestimulation phase. Protamine sulfate was also included during the coculture phase at a concentration of 4 μg/ml. After 48 hours of coculture, cells were washed and plated in semisolid media obtained from Stem Cell Technologies according to manufacturers specifications. This media was pretreated with thymidine phosphorylase at 1 unit/3 ml of media. […]

As to `CN(Cc1cnc2nc(N)nc(N)c2n1)c1ccc(C(=O)N[C@@H](CCC(=O)O)C(=O)O)cc1` [MTX, methotrexate], in assay [1], the “increase in vector-expressing myeloid progenitor cells following MTX treatment” value is 2 fold. For the same compound, the “amplification of vector-expressing progenitor cells” value in assay [2] is on record as “amplified two-fold”.
As for `NC(=O)C1CN(CCCCC(c2ccc(F)cc2)c2ccc(F)cc2)CCN1CC(=O)Nc1c(Cl)cc(N)cc1Cl` (stereo not shown) [draflazine], the “sensitization of progenitor cells to TMTX” value in assay [3] is given as “effectively sensitized progenitor cells to TMTX”. For the same compound, in assay [4], the “potentiation of TMTX toxicity” value is reported as “effectively potentiated TMTX toxicity”. Moreover, in assay [5], the marrow cellularity result is listed as “neither TTI alone had any measurable effect” and the “number of myeloid progenitors in the marrow” value (from here on “number … in the marrow”) was “no effect on progenitor survival”.
Turning to `COc1cc(NCc2ccc3nc(N)nc(N)c3c2C)cc(OC)c1OC` [TMTX, trimetrexate], the “rescue of myeloid progenitors from TMTX toxicity” value in assay [3] (dialyzed serum treated with thymidine phosphorylase, hypoxanthine 100 μM alone added) was “did not rescue myeloid progenitors from TMTX toxicity”. The myeloid progenitor survival result in assay [3] (dialyzed serum, both thymidine and hypoxanthine added) is reported as “fully restored myeloid progenitor survival”. Also, in assay [3] (dialyzed serum, four days), the progenitor survival amounted to 5%. Moreover, the “restoration of TMTX resistance of progenitors” value in assay [3] (dialyzed serum, thymidine 1.0 μM alone added) is given as “did not restore TMTX resistance”. Besides, the “survival of myeloid progenitors” value in assay [3] (undialyzed serum, four days) is “at least 50%”. In the assay with hematopoietic stem cells, the “hematopoietic repopulating ability of donor marrow” value is listed as “failed to adversely effect”. For the same compound, in assay [6], the “TMTX resistance of L22Y-DHFR transduced progenitors” value was “increased TMTX-resistance relative to control (neo) transduced progenitor cells”. In assay [5] (TMTX 100 or 130 mg/kg ip for five consecutive days, 24 hrs after final treatment), the “number of myeloid progenitors and stem cells per femur” value is “remained the same in all groups of mice”. The bone marrow cellularity result in assay [5] (TMTX 100 or 130 mg/kg ip for five consecutive days, 24 hrs after final treatment, relative to untreated mice) is given as “severe marrow hypoplasia”. The “number … in the marrow” value in assay [5] is “modest increase”.
On to `O=[N+]([O-])c1ccc(CSc2ncnc3c2ncn3[C@@H]2O[C@H](CO)[C@@H](O)[C@H]2O)cc1` [NBMPR, nitrobenzylmercaptopurine riboside], for which, in assay [3], the “sensitization of progenitor cells to TMTX” value is “effectively sensitized progenitor cells to TMTX”.
Turning to `O=[N+]([O-])c1ccc(CSc2ncnc3c2ncn3[C@@H]2O[C@H](COP(=O)(O)O)[C@@H](O)[C@H]2O)cc1` [NBMPR-P, NBMPR-5′ monophosphate], in assay [5], the marrow cellularity entry is “neither TTI alone had any measurable effect” and the “number … in the marrow” value was “no effect on progenitor survival”.

The values are drawn from patent publication US6500421B1, “In vivo selection of primitive hematopoietic cells” (St. Jude Children's Research Hospital, priority 1999, dated 2002).
